# Measured values published in US10759822B2 (priority 2016, dated 2020).
# Key:
# [1] = mouse, in vivo; for MRT0-t: Kunming, iv, 1 mg/kg
# [2] = mouse, in vivo
# [3] = system: field EPSP in the rat dentate gyrus; conditions: in vivo, ip; cited from earlier work
Structure (SMILES),MRT0-t [1] [h],(AUC0-t)prodrug/(AUC0-t)prototype drug [1],(AUC0-t)prodrug group/(AUC0-t)prototype drug group [2],increase in the amplitude of the field EPSP [3] [%]
"CCCCCCSS/C(CCOC(=O)CCCC(=O)OC1CCC(N(C)C(=O)c2ccc3nonc3c2)CC1)=C(/C)N(C=O)CC(=O)OCC1OC(O)C(O)C(O)C1O [Compound 21, Pentanedioic acid anti-4-[(benzo[c][1,2,5]oxadiazole-5-carbonyl)-methyl-amino]-cyclohexyl ester 3-hexyldisulfanyl-4-[formyl-(D-glucos-6-yl-carbonylmethyl)-amino]-pent-3-enyl ester]",1.91,1.68,,
"C/C(=C(\CCOC(=O)CCC(=O)OC1CCC(N(C)C(=O)c2ccc3nonc3c2)CC1)SSCCC(C)C)N(C)C=O (stereo not drawn) [Compound 7, Succinic acid anti-4-[(benzo[c][1,2,5]oxadiazole-5-carbonyl)-methyl-amino]-cyclohexyl ester 3-isopentyldisulfanyl-4-(formyl-methyl-amino)-pent-3-enyl ester]",,1.49,0.53,
"C/C(=C(\CCOC(=O)CCC(=O)OC1CCC(N(C)C(=O)c2ccc3nonc3c2)CC1)SSC(C)C)N(C)C=O (stereo not drawn) [Compound 3, Succinic acid anti-4-[(benzo[c][1,2,5]oxadiazole-5-carbonyl)-methyl-amino]-cyclohexyl ester 3-isopropyldisulfanyl-4-(formyl-methyl-amino)-pent-3-enyl ester]",,1.77,0.62,
"CCCN(C=O)/C(C)=C(/CCOC(=O)CCCC(=O)OC1CCC(N(C)C(=O)c2ccc3nonc3c2)CC1)SSCC (stereo not drawn) [Compound 18, Pentanedioic acid anti-4-[(benzo[c][1,2,5]oxadiazole-5-carbonyl)-methyl-amino]-cyclohexyl ester 3-ethyldisulfanyl-4-(formyl-propyl-amino)-pent-3-enyl ester]",,1.70,0.73,
"C/C(=C(\CCOC(=O)CCC(=O)OC1CCC(N(C)C(=O)c2ccc3nonc3c2)CC1)SSCc1ccccc1)N(C)C=O (stereo not drawn) [Compound 8, Succinic acid anti-4-[(benzo[c][1,2,5]oxadiazole-5-carbonyl)-methyl-amino]-cyclohexyl ester 3-benzyldisulfanyl-4-(formyl-methyl-amino)-pent-3-enyl ester]",,1.73,0.62,
"CCCSS/C(CCOC(=O)CCCC(=O)OC1CCC(N(C)C(=O)c2ccc3nonc3c2)CC1)=C(/C)N(C)C=O (stereo not drawn) [Compound 10, Pentanedioic acid anti-4-[(benzo[c][1,2,5]oxadiazole-5-carbonyl)-methyl-amino]-cyclohexyl ester 3-propyldisulfanyl-4-(formyl-methyl-amino)-pent-3-enyl ester]",,1.86,0.47,
"C/C(=C(\CCOC(=O)CCCC(=O)OC1CCC(N(C)C(=O)c2ccc3nonc3c2)CC1)SSCC(C)C)N(C)C=O (stereo not drawn) [Compound 13, Pentanedioic acid anti-4-[(benzo[c][1,2,5]oxadiazole-5-carbonyl)-methyl-amino]-cyclohexyl ester 3-isobutyldisulfanyl-4-(formyl-methyl-amino)-pent-3-enyl ester]",,1.96,0.60,
"CCSS/C(CCOC(=O)CCC(=O)OC1CCC(N(C)C(=O)c2ccc3nonc3c2)CC1)=C(/C)N(C)C=O (stereo not drawn) [Compound 1, Succinic acid anti-4-[(benzo[c][1,2,5]oxadiazole-5-carbonyl)-methyl-amino]-cyclohexyl ester 3-ethyldisulfanyl-4-(formyl-methyl-amino)-pent-3-enyl ester]",,1.55,0.48,
"CCSS/C(CCOC(=O)CCCC(=O)OC1CCC(N(C)C(=O)c2ccc3nonc3c2)CC1)=C(/C)N(C=O)CC(=O)OCC(O)C1OC(=O)C(O)=C1O (stereo not drawn) [Compound 22, Pentanedioic acid anti-4-[(benzo[c][1,2,5]oxadiazole-5-carbonyl)-methyl-amino]-cyclohexyl ester 3-ethyldisulfanyl-4-{[2-(3,4-dihydroxy-5-oxo-2,5-dihydro-furan-2-yl)-2-hydroxy-ethoxycarbonylmethyl]-formyl-amino}-pent-3-enyl ester]",2.00,1.82,,
"CCCCSS/C(CCOC(=O)CCC(=O)OC1CCC(N(C)C(=O)c2ccc3nonc3c2)CC1)=C(/C)N(C)C=O (stereo not drawn) [Compound 4, Succinic acid anti-4-[(benzo[c][1,2,5]oxadiazole-5-carbonyl)-methyl-amino]-cyclohexyl ester 3-butyldisulfanyl-4-(formyl-methyl-amino)-pent-3-enyl ester]",,1.56,0.68,
"CCSS/C(CCOC(=O)CCCC(=O)OC1CCC(N(C)C(=O)c2ccc3nonc3c2)CC1)=C(/C)N(C)C=O (stereo not drawn) [Compound 9, Pentanedioic acid anti-4-[(benzo[c][1,2,5]oxadiazole-5-carbonyl)-methyl-amino]-cyclohexyl ester 3-ethyldisulfanyl-4-(formyl-methyl-amino)-pent-3-enyl ester]",,1.74,0.51,
"C/C(=C(\CCOC(=O)CCCC(=O)OC1CCC(N(C)C(=O)c2ccc3nonc3c2)CC1)SSCc1ccccc1)N(C)C=O (stereo not drawn) [Compound 16, Pentanedioic acid anti-4-[(benzo[c][1,2,5]oxadiazole-5-carbonyl)-methyl-amino]-cyclohexyl ester 3-benzyldisulfanyl-4-(formyl-methyl-amino)-pent-3-enyl ester]",,1.86,0.41,
"CCSS/C(CCOC(=O)CCCC(=O)OC1CCC(N(C)C(=O)c2ccc3nonc3c2)CC1)=C(/C)N(C=O)CC(=O)OCC1OC(O)C(O)C(O)C1O [Compound 20, Pentanedioic acid anti-4-[(benzo[c][1,2,5]oxadiazole-5-carbonyl)-methyl-amino]-cyclohexyl ester 3-ethyldisulfanyl-4-[formyl-(D-glucos-6-yl-carbonylmethyl)-amino]-pent-3-enyl ester]",,1.65,0.82,
"CCCCCSS/C(CCOC(=O)CCC(=O)OC1CCC(N(C)C(=O)c2ccc3nonc3c2)CC1)=C(/C)N(C)C=O (stereo not drawn) [Compound 6, Succinic acid anti-4-[(benzo[c][1,2,5]oxadiazole-5-carbonyl)-methyl-amino]-cyclohexyl ester 3-pentyldisulfanyl-4-(formyl-methyl-amino)-pent-3-enyl ester]",,1.88,0.62,
"CCSS/C(CCOC(=O)CCCC(=O)OC1CCC(N(C)C(=O)c2ccc3nonc3c2)CC1)=C(/C)N(C=O)CC (stereo not drawn) [Compound 17, Pentanedioic acid anti-4-[(benzo[c][1,2,5]oxadiazole-5-carbonyl)-methyl-amino]-cyclohexyl ester 3-ethyldisulfanyl-4-(formyl-ethyl-amino)-pent-3-enyl ester]",,1.55,0.61,
"CCCCSS/C(CCOC(=O)CCCC(=O)OC1CCC(N(C)C(=O)c2ccc3nonc3c2)CC1)=C(/C)N(C)C=O (stereo not drawn) [Compound 12, Pentanedioic acid anti-4-[(benzo[c][1,2,5]oxadiazole-5-carbonyl)-methyl-amino]-cyclohexyl ester 3-butyldisulfanyl-4-(formyl-methyl-amino)-pent-3-enyl ester]",,1.92,0.46,
"C/C(=C(\CCOC(=O)CCCC(=O)OC1CCC(N(C)C(=O)c2ccc3nonc3c2)CC1)SSC(C)C)N(C)C=O (stereo not drawn) [Compound 11, Pentanedioic acid anti-4-[(benzo[c][1,2,5]oxadiazole-5-carbonyl)-methyl-amino]-cyclohexyl ester 3-isopropyldisulfanyl-4-(formyl-methyl-amino)-pent-3-enyl ester]",,1.92,0.72,
"O=C(c1ccc2nccnc2c1)N1CCCCC1 [CX516, 6-(piperidin-1-yl-carbonyl)quinoxaline]",,,,9
"CCCSS/C(CCOC(=O)CCC(=O)OC1CCC(N(C)C(=O)c2ccc3nonc3c2)CC1)=C(/C)N(C)C=O (stereo not drawn) [Compound 2, Succinic acid anti-4-[(benzo[c][1,2,5]oxadiazole-5-carbonyl)-methyl-amino]-cyclohexyl ester 3-propyldisulfanyl-4-(formyl-methyl-amino)-pent-3-enyl ester]",,1.72,0.49,
"CCCCCSS/C(CCOC(=O)CCCC(=O)OC1CCC(N(C)C(=O)c2ccc3nonc3c2)CC1)=C(/C)N(C)C=O (stereo not drawn) [Compound 14, Pentanedioic acid anti-4-[(benzo[c][1,2,5]oxadiazole-5-carbonyl)-methyl-amino]-cyclohexyl ester 3-pentyldisulfanyl-4-(formyl-methyl-amino)-pent-3-enyl ester]",,1.98,0.65,
"C/C(=C(\CCOC(=O)CCCC(=O)OC1CCC(N(C)C(=O)c2ccc3nonc3c2)CC1)SSCCC(C)C)N(C=O)CC(=O)OCC1OC(O)C(O)C(O)C1O [Compound 19, Pentanedioic acid anti-4-[(benzo[c][1,2,5]oxadiazole-5-carbonyl)-methyl-amino]-cyclohexyl ester 3-isopentyldisulfanyl-4-[formyl-(D-glucos-6-yl-carbonylmethyl)-amino]-pent-3-enyl ester]",,1.41,0.73,
"C/C(=C(\CCOC(=O)CCC(=O)OC1CCC(N(C)C(=O)c2ccc3nonc3c2)CC1)SSCC(C)C)N(C)C=O (stereo not drawn) [Compound 5, Succinic acid anti-4-[(benzo[c][1,2,5]oxadiazole-5-carbonyl)-methyl-amino]-cyclohexyl ester 3-isobutyldisulfanyl-4-(formyl-methyl-amino)-pent-3-enyl ester]",,1.70,0.67,
